Earlier results, collected in US20230310429A1, “FORMULATIONS FOR REDUCING HAIR LOSS AND/OR INCREASING HAIR REGROWTH” (TRIPLE HAIR INC., priority 2020, published 2023).
Like-named read-outs stand apart in the source and are kept apart here.

Key:
[1] = tested on: prostaglandin endoperoxide synthase-1 (PGHS-1); details: oxygen consumption in PGE2 production; Michelet et al. 1997
regrowth of the hair = details: topical
[2] = not given; remark: listed apart in the source
[3] = not given; remark: listed apart in the source

Row | SMILES | pKa | activation of purified PGHS-1 [1] | effective in promoting regrowth of the hair (regrowth of the hair) | solubility (in words) ([2]; acetone) | solubility (in words) ([2]; acetonitrile) | solubility (in words) ([2]; ethanol) | solubility (in words) ([2]; ethyl acetate) | solubility (in words) ([2]; isopropanol) | solubility (in words) ([2]; methanol) | solubility (in words) ([2]; octanol) | solubility (in words) ([2]; water) | other adverse effects ([3]; in vivo) | side effect on periocular hair and eyelashes ([3]; ophthalmic use) | solubility (in words) ([2]; 0.1N HCl) | solubility (in words) ([2]; 0.1N NaOH) | solubility (in words) ([2]; DMSO) | solubility (in words) ([2]; chloroform) | solubility (in words) ([2]; n-propanol) | solubility (in words) ([2]; polyethylene glycol 400) | solubility (in words) ([2]; propylene glycol)
1 | Nc1cc(N2CCCCC2)nc(N)[n+]1[O-] [Minoxidil, (6-(1-pipedidinyl)-2,4-pyrimidinediamine 3-oxide)] | 4.61 | potent activator | less than 40% | – | – | – | – | – | – | – | – | – | – | – | – | – | – | – | – | –
2 | CC(C)OC(=O)CCC/C=C\C[C@@H]1[C@@H](CC[C@@H](O)CCc2ccccc2)[C@H](O)C[C@@H]1O [Latanoprost] | – | – | – | freely soluble | very soluble | freely soluble | freely soluble | freely soluble | freely soluble | freely soluble | practically insoluble | erythema, folliculitis, sensation of burning and erysipelas | augmentation of periocular hirsuteness | – | – | – | – | – | – | –
3 | CC(C)(C)NC(=O)[C@H]1CC[C@H]2[C@@H]3CC[C@H]4NC(=O)C=C[C@]4(C)[C@H]3CC[C@]12C [Finasteride, ((5α,17β)-N-(1,1-Dimethylethyl)-3-oxo-4-azaandrost-1-ene-17-carboxamide)] | – | – | – | – | – | freely soluble | – | – | freely soluble | – | not soluble | – | – | very slightly soluble | very slightly soluble | freely soluble | freely soluble | freely soluble | sparingly soluble | sparingly soluble
